Experimental data as given in patent publication US12493040B2, “Cancer detection method using sense of smell of nematode” (HIROTSU BIO SCIENCE INC., priority 2013, dated 2025).

Test system: RNAi-treated eri-1 (mg366) nematodes
Experiment: RNAi screening of olfactory receptor genes: chemotaxis assay of RNAi-treated nematodes to odorants
Assay type: in vivo, Caenorhabditis elegans
Conditions: repellent or high concentration of attractant
How it was run: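 Chemotaxis of adult RNAi-fed eri-1 (mg366) nematodes (30–50 per test) was measured toward low (1 μl, 10^−3 or 10^−4 dilution) or high (1 and 5 μl neat) odorant doses. Knockdown: 4 days feeding on E. coli from Ahringer library with IPTG and ampicillin. Differences called by z score at ±1.96, weaker cutoff ±0.96.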

With `CCCCCCCCO` [octanol] as the molecule, how does the chemotaxis index (Control nematodes) read?
The chemotaxis index was −0.68 ± 0.018.

And the chemotaxis index (srh-4 RNAi-treated nematodes)?
The chemotaxis index was −0.17.

What about the chemotaxis index (srh-7 RNAi-treated nematodes) of the same molecule?
The chemotaxis index was −0.65.

And the chemotaxis index (srh-8 RNAi-treated nematodes)?
The chemotaxis index was −0.80.

And the chemotaxis index (srh-10 RNAi-treated nematodes)?
The chemotaxis index was −0.45.

What about the chemotaxis index (srh-11 RNAi-treated nematodes) of the same molecule?
The chemotaxis index was −0.19.

And the chemotaxis index (srh-15 RNAi-treated nematodes)?
Its chemotaxis index is −0.85.

And the chemotaxis index (srh-16 RNAi-treated nematodes)?
Its chemotaxis index is −0.89.

And the chemotaxis index (srh-18 RNAi-treated nematodes)?
Its chemotaxis index is −0.65.

What about the chemotaxis index (srh-19 RNAi-treated nematodes) of the same molecule?
The chemotaxis index was −0.33.

What about the chemotaxis index (srh-22 RNAi-treated nematodes) of the same molecule?
The chemotaxis index was −0.48.

And the chemotaxis index (srh-23 RNAi-treated nematodes)?
The chemotaxis index was −0.90.

And the chemotaxis index (srh-24 RNAi-treated nematodes)?
Its chemotaxis index is −0.56.

And the chemotaxis index (srh-25 RNAi-treated nematodes)?
Its chemotaxis index is −0.90.

And the chemotaxis index (srh-27 RNAi-treated nematodes)?
The chemotaxis index was −0.68.

What about the chemotaxis index (srh-28 RNAi-treated nematodes) of the same molecule?
Its chemotaxis index is −0.73.

And the chemotaxis index (srh-36 RNAi-treated nematodes)?
The chemotaxis index was −0.72.

What about the chemotaxis index (srh-37 RNAi-treated nematodes) of the same molecule?
The chemotaxis index was −0.88.

What about the chemotaxis index (srh-39 RNAi-treated nematodes) of the same molecule?
The chemotaxis index was −0.50.

What about the chemotaxis index (srh-40 RNAi-treated nematodes) of the same molecule?
The chemotaxis index was −0.92.

What about the chemotaxis index (srh-41 RNAi-treated nematodes) of the same molecule?
The chemotaxis index was −0.80.

And the chemotaxis index (srh-44 RNAi-treated nematodes)?
Its chemotaxis index is −0.52.

What about the chemotaxis index (srh-45 RNAi-treated nematodes) of the same molecule?
Its chemotaxis index is −0.87.

And the chemotaxis index (srh-46 RNAi-treated nematodes)?
The chemotaxis index was −0.87.

What about the chemotaxis index (srh-48 RNAi-treated nematodes) of the same molecule?
Its chemotaxis index is −0.83.

And the chemotaxis index (srh-49 RNAi-treated nematodes)?
The chemotaxis index was −0.57.

What about the chemotaxis index (srh-50 RNAi-treated nematodes) of the same molecule?
Its chemotaxis index is −0.89.

And the chemotaxis index (srh-51 RNAi-treated nematodes)?
Its chemotaxis index is −0.89.

What about the chemotaxis index (srh-52 RNAi-treated nematodes) of the same molecule?
The chemotaxis index was −0.79.

And the chemotaxis index (srh-55 RNAi-treated nematodes)?
The chemotaxis index was −0.95.

And the chemotaxis index (srh-59 RNAi-treated nematodes)?
The chemotaxis index was −0.55.

And the chemotaxis index (srh-60 RNAi-treated nematodes)?
Its chemotaxis index is −0.52.

What about the chemotaxis index (srh-61 RNAi-treated nematodes) of the same molecule?
The chemotaxis index was −0.77.

What about the chemotaxis index (srh-67 RNAi-treated nematodes) of the same molecule?
The chemotaxis index was −0.66.

What about the chemotaxis index (srh-68 RNAi-treated nematodes) of the same molecule?
Its chemotaxis index is −0.79.

And the chemotaxis index (srh-69 RNAi-treated nematodes)?
The chemotaxis index was −0.61.

What about the chemotaxis index (srh-70 RNAi-treated nematodes) of the same molecule?
Its chemotaxis index is −0.80.

What about the chemotaxis index (srh-71 RNAi-treated nematodes) of the same molecule?
The chemotaxis index was −0.60.

What about the chemotaxis index (srh-72 RNAi-treated nematodes) of the same molecule?
Its chemotaxis index is −0.62.

What about the chemotaxis index (srh-74 RNAi-treated nematodes) of the same molecule?
Its chemotaxis index is −0.89.

And the chemotaxis index (srh-75 RNAi-treated nematodes)?
Its chemotaxis index is −0.59.

And the chemotaxis index (srh-77 RNAi-treated nematodes)?
Its chemotaxis index is −0.31.

And the chemotaxis index (srh-79 RNAi-treated nematodes)?
Its chemotaxis index is −0.17.

What about the chemotaxis index (srh-80 RNAi-treated nematodes) of the same molecule?
The chemotaxis index was −0.39.

What about the chemotaxis index (srh-82 RNAi-treated nematodes) of the same molecule?
Its chemotaxis index is −0.65.

What about the chemotaxis index (srh-83 RNAi-treated nematodes) of the same molecule?
The chemotaxis index was −0.33.

And the chemotaxis index (srh-97 RNAi-treated nematodes)?
Its chemotaxis index is −0.64.

What about the chemotaxis index (srh-99 RNAi-treated nematodes) of the same molecule?
Its chemotaxis index is −0.61.

What about the chemotaxis index (srh-100 RNAi-treated nematodes) of the same molecule?
Its chemotaxis index is −0.46.

And the chemotaxis index (srh-104 RNAi-treated nematodes)?
Its chemotaxis index is −0.36.

What about the chemotaxis index (srh-105 RNAi-treated nematodes) of the same molecule?
The chemotaxis index was −0.61.

And the chemotaxis index (srh-109 RNAi-treated nematodes)?
Its chemotaxis index is −0.91.

What about the chemotaxis index (srh-111 RNAi-treated nematodes) of the same molecule?
The chemotaxis index was −0.44.

And the chemotaxis index (srh-113 RNAi-treated nematodes)?
Its chemotaxis index is −0.43.

What about the chemotaxis index (srh-115 RNAi-treated nematodes) of the same molecule?
Its chemotaxis index is −0.82.

And the chemotaxis index (srh-116 RNAi-treated nematodes)?
Its chemotaxis index is −0.82.

And the chemotaxis index (srh-118 RNAi-treated nematodes)?
Its chemotaxis index is −0.37.

What about the chemotaxis index (srh-119 RNAi-treated nematodes) of the same molecule?
Its chemotaxis index is −0.35.

And the chemotaxis index (srh-120 RNAi-treated nematodes)?
Its chemotaxis index is −0.37.

And the chemotaxis index (srh-122 RNAi-treated nematodes)?
The chemotaxis index was −0.61.

What about the chemotaxis index (srh-123 RNAi-treated nematodes) of the same molecule?
Its chemotaxis index is −0.32.

What about the chemotaxis index (srh-125 RNAi-treated nematodes) of the same molecule?
The chemotaxis index was −0.56.

What about the chemotaxis index (srh-128 RNAi-treated nematodes) of the same molecule?
The chemotaxis index was −0.47.

And the chemotaxis index (srh-129 RNAi-treated nematodes)?
Its chemotaxis index is −0.56.

And the chemotaxis index (srh-130 RNAi-treated nematodes)?
Its chemotaxis index is −0.68.

What about the chemotaxis index (srh-131 RNAi-treated nematodes) of the same molecule?
The chemotaxis index was −0.49.

What about the chemotaxis index (srh-132 RNAi-treated nematodes) of the same molecule?
The chemotaxis index was −0.19.

And the chemotaxis index (srh-139 RNAi-treated nematodes)?
Its chemotaxis index is −0.73.

And the chemotaxis index (srh-140 RNAi-treated nematodes)?
The chemotaxis index was −0.78.

And the chemotaxis index (srh-141 RNAi-treated nematodes)?
The chemotaxis index was −0.49.

And the chemotaxis index (srh-142 RNAi-treated nematodes)?
Its chemotaxis index is −0.59.

And the chemotaxis index (srh-145 RNAi-treated nematodes)?
The chemotaxis index was −0.64.

What about the chemotaxis index (srh-148 RNAi-treated nematodes) of the same molecule?
The chemotaxis index was −0.67.

What about the chemotaxis index (srh-154 RNAi-treated nematodes) of the same molecule?
Its chemotaxis index is −0.65.

And the chemotaxis index (srh-159 RNAi-treated nematodes)?
The chemotaxis index was −0.79.

And the chemotaxis index (srh-165 RNAi-treated nematodes)?
The chemotaxis index was −0.49.

And the chemotaxis index (srh-166 RNAi-treated nematodes)?
The chemotaxis index was −0.74.

What about the chemotaxis index (srh-167 RNAi-treated nematodes) of the same molecule?
The chemotaxis index was −0.28.

And the chemotaxis index (srh-169 RNAi-treated nematodes)?
Its chemotaxis index is −0.62.

And the chemotaxis index (srh-174 RNAi-treated nematodes)?
The chemotaxis index was −0.45.

What about the chemotaxis index (srh-179 RNAi-treated nematodes) of the same molecule?
Its chemotaxis index is −0.60.

What about the chemotaxis index (srh-182 RNAi-treated nematodes) of the same molecule?
The chemotaxis index was −0.86.

And the chemotaxis index (srh-186 RNAi-treated nematodes)?
The chemotaxis index was −0.64.

What about the chemotaxis index (srh-190 RNAi-treated nematodes) of the same molecule?
The chemotaxis index was −0.64.

What about the chemotaxis index (srh-193 RNAi-treated nematodes) of the same molecule?
Its chemotaxis index is −0.92.

What about the chemotaxis index (srh-195 RNAi-treated nematodes) of the same molecule?
The chemotaxis index was −0.47.

What about the chemotaxis index (srh-201 RNAi-treated nematodes) of the same molecule?
Its chemotaxis index is −0.93.

And the chemotaxis index (srh-203 RNAi-treated nematodes)?
The chemotaxis index was −0.95.

What about the chemotaxis index (srh-204 RNAi-treated nematodes) of the same molecule?
Its chemotaxis index is −0.90.

And the chemotaxis index (srh-206 RNAi-treated nematodes)?
The chemotaxis index was −0.94.

And the chemotaxis index (srh-207 RNAi-treated nematodes)?
The chemotaxis index was −0.81.

What about the chemotaxis index (srh-208 RNAi-treated nematodes) of the same molecule?
Its chemotaxis index is −0.60.

What about the chemotaxis index (srh-209 RNAi-treated nematodes) of the same molecule?
The chemotaxis index was −0.85.

And the chemotaxis index (srh-210 RNAi-treated nematodes)?
Its chemotaxis index is −0.77.

And the chemotaxis index (srh-214 RNAi-treated nematodes)?
Its chemotaxis index is −0.98.

What about the chemotaxis index (srh-216 RNAi-treated nematodes) of the same molecule?
The chemotaxis index was −0.68.

And the chemotaxis index (srh-217 RNAi-treated nematodes)?
Its chemotaxis index is −0.82.

What about the chemotaxis index (srh-220 RNAi-treated nematodes) of the same molecule?
The chemotaxis index was −0.47.

What about the chemotaxis index (srh-222 RNAi-treated nematodes) of the same molecule?
The chemotaxis index was −0.77.

And the chemotaxis index (srh-223 RNAi-treated nematodes)?
The chemotaxis index was −0.75.
